“Also recorded” adds a separate entry of the source. Read-outs that look alike come from different tables or passages of the source.
Tests used:
[1] = cited from earlier work
[2] = Phase Ib drug–drug interaction study: safety and tolerability (adverse events); assay type: in vivo, human
Text: This was a phase Ib, open-label, four-arm, parallel design, multicenter, multiple-dose study in healthy female subjects of non-childbearing potential. Subjects were randomly assigned to 1 of 4 treatment arms in a 1:1:1:1 ratio with stratification according to AAG concentration [low (0.5–0.73 g/L), medium (0.74–0.96 g/L), or high (0.97–1.2 g/L)].

[3] = vismodegib; ANOVA, back-transformed; day 7 (day 11 in Arm B)
[4] = unbound vismodegib; geometric mean (CV %); 2, 6 and 12 h postdose on day 7 (day 11 in Arm B); vismodegib 150 mg QD
Procedure: PK parameters were calculated using noncompartmental methods with WinNonlin (Pharsight Corporation, Mountain View, CA; Version 5.2); the PK analysis used actual times as recorded on the case report form.

[5] = cited from earlier work; remark: listed apart in the source
[6] = test system: Caco-2 cells; conditions: cited from earlier work
[7] = test system: human hepatocytes; parameters: method as in PMID 19845436; conditions: 3-h incubation with human hepatocytes; cited from earlier work
[8] = parameters: method as in PMID 19845436; conditions: cited from earlier work
[9] = clinical; conditions: female, human, plasma, po, 150 mg
[10] = cited from earlier work; remark: listed apart in the source
[11] = test system: P-glycoprotein (P-gp); conditions: MDCK cells overexpressing P-gp; cited from earlier work
[12] = test system: CYP2C9 and CYP3A4; conditions: cited from earlier work
[13] = number of subjects (percent), safety population

## CC(=O)N1CCN(c2ccc(OCC3COC(Cn4ccnc4)(c4ccc(Cl)cc4Cl)O3)cc2)CC1 (centres unmarked) [ketoconazole]
[1]
  Impairment of absorption by acid-reducing agents: more than 90%

## CS(=O)(=O)c1ccc(C(=O)Nc2ccc(Cl)c(-c3ccccn3)c2)c(Cl)c1 [Vismodegib, 2-chloro-N-(4-chloro-3-(pyridin-2-yl)phenyl)-4-(methylsulfonyl) benzamide]
[2]; across the study
  Most frequent AEs related to vismodegib: constipation: 10.5%
  Most frequent AEs related to vismodegib: diarrhea: 8.0%
  Most frequent AEs related to vismodegib: headache: 10.5%
  Most frequent AEs related to vismodegib: nausea: 9.3%
[2]; [13]
  Treatment-emergent AE: Abdominal distention: 1 (4.5)
  Treatment-emergent AE: Abdominal pain: 1 (4.5)
  Treatment-emergent AE: Constipation: 4 (18.2)
  Treatment-emergent AE: Diarrhea: 1 (4.5)
  Treatment-emergent AE: Dizziness: 2 (9.1)
  Treatment-emergent AE: Flatulence: 1 (4.5)
  Treatment-emergent AE: Headache: 4 (18.2)
  Treatment-emergent AE: Nausea: 2 (9.1)
  Treatment-emergent AE: Pruritus: 0
  Treatment-emergent AE: Rash: 0
[2]; of the 127 treatment-emergent AEs
  Number of treatment-emergent AEs considered related to vismodegib: 92
[3]
  Geometric LS mean of AUC0–24h at steady state: 402 µM·h
[4]
  Css,ave,u (average unbound plasma concentration at steady state): 0.150 (50.2) µmol/L
[5]
  Decrease in solubility from pH 2 to 7: 10,000 fold
[6]
  Permeability: high permeability
[7]
  Parent remaining: 96%
[8]
  Predicted preclinical efficacious levels (unbound concentration range required for efficacy): 0.042 to 0.068 µM
[9]
  AUC(0-t): 140 µM·h
  Cmax: 7 µM
  Tmax: 6 h
[10]
  Absolute bioavailability at steady state: less than 10%
[10]; daily dose increased from 150 to 270 or 540 mg
  Change in steady-state plasma concentrations with dose: no increase
[10]; healthy subjects
  Increase in total clearance with multiple dosing: 81%
  Oral steady-state AUC0–24h after multiple dosing compared with AUC from zero to infinity after a single dose: approximately eightfold lower
[10]; patients
  PK variability explained by AAG levels: > 70%
[10]; ref data on file
  PK variability explained by AAG levels: > 70%
[10]; single dose
  Terminal elimination half-life: 288 h
[11]
  P-gp substrate status: weak substrate of P-gp; also recorded: P-glycoprotein (P-gp) substrate
[12]
  Metabolizing enzymes: primarily metabolized by CYP2C9 and CYP3A4

## COC(=O)N[C@H](C(=O)N[C@@H](Cc1ccccc1)[C@@H](O)CN(Cc1ccc(-c2ccccn2)cc1)NC(=O)[C@@H](NC(=O)OC)C(C)(C)C)C(C)(C)C [atazanavir]
[1]
  Change in bioavailability on co-administration of the PPI lansoprazole: large reduction

Source: PMC4921109 (Cancer Chemotherapy and Pharmacology, 2016)
